Assay results from ChEMBL document CHEMBL1909046, “DrugMatrix in vitro pharmacology data”.
pIC50, pKi: −log10 of the molar value.

Legend:
[1] = DRUGMATRIX: Sodium/nucleoside co-transporter radioligand binding (ligand: nitrobenzylthioinosine); type: cell membranes, Cavia porcellus, Dunkin-Hartley, Cerebral cortex, Membrane; settings: Not Active = under 50% inhibition at 10 µM
[2] = molecular target: T1, Muscarinic acetylcholine receptor M4 (Homo sapiens, UniProt P08173); type: cell membranes, CHO-K1, Membrane; settings: for IC50: cho-k1; on all read-outs here: in other assays of this panel Not Active means under 50% inhibition at 10 µM
T1 sequence (P08173 whole entry): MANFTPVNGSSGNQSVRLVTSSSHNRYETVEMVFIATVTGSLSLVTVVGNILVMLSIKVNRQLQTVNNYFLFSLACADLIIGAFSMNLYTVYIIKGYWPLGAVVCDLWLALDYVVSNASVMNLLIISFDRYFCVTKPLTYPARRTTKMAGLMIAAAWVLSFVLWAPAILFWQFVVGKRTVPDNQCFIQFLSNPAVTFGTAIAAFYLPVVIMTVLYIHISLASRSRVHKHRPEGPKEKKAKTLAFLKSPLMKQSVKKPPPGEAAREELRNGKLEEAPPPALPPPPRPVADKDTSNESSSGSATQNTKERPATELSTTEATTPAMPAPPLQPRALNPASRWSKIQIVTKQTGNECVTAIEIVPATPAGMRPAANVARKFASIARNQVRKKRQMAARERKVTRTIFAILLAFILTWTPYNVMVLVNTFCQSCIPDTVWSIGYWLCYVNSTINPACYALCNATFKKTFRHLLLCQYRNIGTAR

[3] = molecular target: T2, Cysteinyl leukotriene receptor 1 (Homo sapiens, UniProt Q9Y271); type: cell membranes, Membrane; settings: cho-k1; further: in other assays of this panel Not Active means under 50% inhibition at 10 µM
T2 sequence (Q9Y271 whole entry): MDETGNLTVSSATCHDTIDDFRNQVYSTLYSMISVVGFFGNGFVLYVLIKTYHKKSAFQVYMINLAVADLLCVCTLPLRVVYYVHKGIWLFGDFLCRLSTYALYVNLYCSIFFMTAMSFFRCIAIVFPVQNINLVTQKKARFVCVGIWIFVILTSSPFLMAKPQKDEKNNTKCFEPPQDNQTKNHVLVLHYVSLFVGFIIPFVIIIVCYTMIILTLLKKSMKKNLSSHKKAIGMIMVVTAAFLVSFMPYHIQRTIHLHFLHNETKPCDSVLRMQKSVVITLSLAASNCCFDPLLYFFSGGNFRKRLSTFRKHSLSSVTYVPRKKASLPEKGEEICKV

[4] = molecular target: T3, C-X-C chemokine receptor type 1 (Homo sapiens, UniProt P25024); further: in other assays of this panel Not Active means under 50% inhibition at 10 µM
T3 sequence (P25024 whole entry): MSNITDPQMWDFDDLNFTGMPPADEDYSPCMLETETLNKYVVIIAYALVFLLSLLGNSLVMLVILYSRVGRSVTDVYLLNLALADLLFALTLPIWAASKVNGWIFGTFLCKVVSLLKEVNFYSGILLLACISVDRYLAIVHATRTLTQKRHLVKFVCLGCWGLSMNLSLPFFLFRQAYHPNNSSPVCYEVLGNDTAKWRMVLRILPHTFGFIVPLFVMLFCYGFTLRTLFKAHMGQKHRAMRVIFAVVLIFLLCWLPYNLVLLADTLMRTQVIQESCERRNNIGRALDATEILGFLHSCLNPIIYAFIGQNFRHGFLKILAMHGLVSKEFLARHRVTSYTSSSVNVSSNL

[5] = molecular target: T4, Estrogen receptor (Homo sapiens, UniProt P03372); settings: sf9; further: in other assays of this panel Not Active means under 50% inhibition at 10 µM
T4 sequence (P03372 whole entry): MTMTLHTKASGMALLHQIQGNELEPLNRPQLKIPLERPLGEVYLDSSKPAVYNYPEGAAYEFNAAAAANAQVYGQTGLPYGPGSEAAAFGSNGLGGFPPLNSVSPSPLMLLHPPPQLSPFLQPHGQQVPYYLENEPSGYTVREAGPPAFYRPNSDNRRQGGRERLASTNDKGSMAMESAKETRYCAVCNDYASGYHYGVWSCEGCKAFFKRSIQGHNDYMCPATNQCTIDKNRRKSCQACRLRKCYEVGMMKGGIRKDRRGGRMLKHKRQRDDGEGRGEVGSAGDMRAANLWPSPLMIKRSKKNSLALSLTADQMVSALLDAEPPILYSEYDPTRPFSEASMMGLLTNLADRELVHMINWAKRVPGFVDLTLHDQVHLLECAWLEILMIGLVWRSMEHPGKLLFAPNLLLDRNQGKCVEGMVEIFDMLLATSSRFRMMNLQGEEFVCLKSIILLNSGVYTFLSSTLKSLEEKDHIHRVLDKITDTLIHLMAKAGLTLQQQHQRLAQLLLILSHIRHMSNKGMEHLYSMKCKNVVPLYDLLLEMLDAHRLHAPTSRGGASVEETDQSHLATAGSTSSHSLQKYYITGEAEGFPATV

[6] = molecular target: Aldo-keto reductase family 1 member B1 (Rattus norvegicus, UniProt P07943); assay: biochemical; type: tissue-based, Lens of camera-type eye
[7] = molecular target: T5, Alpha-1B adrenergic receptor (Rattus norvegicus, UniProt P15823); assay: DRUGMATRIX: Alpha-1B adrenergic receptor radioligand binding (ligand: prazosin); type: cell membranes, Wistar, Liver, Membrane; settings: Not Active = under 50% inhibition at 10 µM
T5 sequence (P15823 whole entry): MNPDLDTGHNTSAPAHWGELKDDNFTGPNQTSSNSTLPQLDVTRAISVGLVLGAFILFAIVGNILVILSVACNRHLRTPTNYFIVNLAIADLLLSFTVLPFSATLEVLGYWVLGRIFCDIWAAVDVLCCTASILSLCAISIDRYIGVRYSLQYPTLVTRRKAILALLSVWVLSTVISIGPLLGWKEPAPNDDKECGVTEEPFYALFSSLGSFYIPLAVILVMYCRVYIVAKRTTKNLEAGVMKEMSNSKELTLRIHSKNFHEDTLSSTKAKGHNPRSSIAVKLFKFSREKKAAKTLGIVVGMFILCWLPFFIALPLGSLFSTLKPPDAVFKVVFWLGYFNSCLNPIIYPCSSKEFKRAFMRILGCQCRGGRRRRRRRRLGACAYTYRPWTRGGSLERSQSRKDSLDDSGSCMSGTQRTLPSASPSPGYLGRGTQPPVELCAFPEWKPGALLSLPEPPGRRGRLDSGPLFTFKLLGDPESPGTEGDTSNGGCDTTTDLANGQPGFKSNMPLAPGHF

Row | Structure (SMILES) | IC50 [1] | Ki [1] | IC50 [2] | IC50 [3] | IC50 [4] | IC50 [5] | IC50 [6] | IC50 [7] | pIC50 ([2]; read-out: IC50) | pKi ([2]; read-out: Ki) | pIC50 ([7]; read-out: IC50) | pKi ([7]; read-out: Ki)
1 | CCOc1nc2cccc(C(=O)O)c2n1Cc1ccc(-c2ccccc2-c2nnn[nH]2)cc1 | Not Active | Not Active | Not Active | Not Active | Not Active | Not Active | Not Active | Not Active |  |  |  | 
2 | O=C(O)CCCc1cccs1 | Not Active | Not Active | Not Active | Not Active | Not Active | Not Active | Not Active | Not Active |  |  |  | 
3 | O=C(c1ccccc1F)N1CCC(Cc2ccccc2)CC1 | Not Active | Not Active | Not Active | Not Active | Not Active | Not Active | Not Active | Not Active |  |  |  | 
4 | CC(O)COC[C@H]1O[C@@H]2O[C@H]3[C@H](O)[C@@H](O)[C@@H](O[C@H]4[C@H](O)[C@@H](O)[C@@H](O[C@H]5[C@H](O)[C@@H](O)[C@@H](O[C@H]6[C@H](O)[C@@H](O)[C@@H](O[C@H]7[C@H](O)[C@@H](O)[C@@H](O[C@H]8[C@H](O)[C@@H](O)[C@@H](O[C@H]1[C@H](O)[C@H]2O)O[C@@H]8COCC(C)O)O[C@@H]7COCC(C)O)O[C@@H]6COCC(C)O)O[C@@H]5COCC(C)O)O[C@@H]4COCC(C)O)O[C@@H]3COCC(C)O (stereo partly drawn) [2-HYDROXYPROPYL-BETA-CYCLODEXTRIN] | Not Active | Not Active | Not Active | Not Active | Not Active | Not Active | Not Active | Not Active |  |  |  | 
5 | NC(=O)c1cccc(N)c1 [3-AMINOBENZAMIDE] | Not Active | Not Active | Not Active | Not Active | Not Active | Not Active | Not Active | Not Active |  |  |  | 
6 | CC[C@H]1[C@@H]2C[C@H]3[C@@H]4N(C)c5ccccc5[C@]45C[C@@H]([C@@H]2[C@H]5O)N3[C@@H]1O [AJMALINE] | Not Active | Not Active | Not Active | Not Active | Not Active | Not Active | Not Active | Not Active |  |  |  | 
7 | NCCCNCCSP(=O)(O)O [AMIFOSTINE] | Not Active | Not Active | Not Active | Not Active | Not Active | Not Active | Not Active | Not Active |  |  |  | 
8 | CN(C)CCC=C1c2ccccc2CCc2ccccc21 [AMITRIPTYLINE] | Not Active | Not Active |  | Not Active | Not Active | Not Active | Not Active |  | 8.28 | 9.13 | 7.12 | 7.38
9 | CC(=O)Oc1ccccc1C(=O)O [ASPIRIN] | Not Active | Not Active | Not Active | Not Active | Not Active | Not Active | Not Active | Not Active |  |  |  | 
10 | CC(=O)OC[C@H]1O[C@@H](n2ncc(=O)[nH]c2=O)[C@H](OC(C)=O)[C@@H]1OC(C)=O [AZARIBINE] | Not Active | Not Active | Not Active | Not Active | Not Active | Not Active | Not Active | Not Active |  |  |  | 
11 | O=C(O)CCNC(=O)c1ccc(/N=N/c2ccc(O)c(C(=O)O)c2)cc1 [BALSALAZIDE] | Not Active | Not Active | Not Active | Not Active | Not Active | Not Active | Not Active | Not Active |  |  |  | 
12 | ClC(Cl)(Cl)Cl [CARBON TETRACHLORIDE] | Not Active | Not Active | Not Active | Not Active | Not Active | Not Active | Not Active | Not Active |  |  |  | 
13 | CNC1=Nc2ccc(Cl)cc2C(c2ccccc2)=[N+]([O-])C1 [CHLORDIAZEPOXIDE] | Not Active | Not Active | Not Active | Not Active | Not Active | Not Active | Not Active | Not Active |  |  |  | 
